Laboratory results from PubChem BioAssay (NCI).
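Exposure lasted 48 hours, with cells grown in 96-well plates and compounds tested at five concentrations. TGI marks complete inhibition of growth.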

Key:
Assay in all cases: inhibition of tumour cell growth, NCI panel, 48 h
SF-539 CNS = system: SF-539 CNS
LOX IMVI melanoma = system: LOX IMVI melanoma
NCI/ADR-RES ovarian = system: NCI/ADR-RES ovarian
BT-549 breast = system: BT-549 breast
MDA-MB-231 breast = system: MDA-MB-231 breast
COLO 205 colon = system: COLO 205 colon
HT29 colon = system: HT29 colon
SK-OV-3 ovarian = system: SK-OV-3 ovarian
HOP-62 NSCLC = system: HOP-62 NSCLC
SNB-75 CNS = system: SNB-75 CNS
SF-295 CNS = system: SF-295 CNS
CAKI-1 renal = system: CAKI-1 renal
MCF7 breast = system: MCF7 breast
CCRF-CEM leukemia = system: CCRF-CEM leukemia
OVCAR-8 ovarian = system: OVCAR-8 ovarian
UACC-62 melanoma = system: UACC-62 melanoma
HS 578T breast = system: HS 578T breast
EKVX NSCLC = system: EKVX NSCLC
DU-145 prostate = system: DU-145 prostate
A498 renal = system: A498 renal
UACC-257 melanoma = system: UACC-257 melanoma
NCI-H460 lung = system: NCI-H460 lung
IGROV1 ovarian = system: IGROV1 ovarian
HCT-15 colon = system: HCT-15 colon
A549 NSCLC = system: A549 NSCLC
UO-31 renal = system: UO-31 renal
HCT-116 colon = system: HCT-116 colon
NCI-H226 lung = system: NCI-H226 lung
SN12C renal = system: SN12C renal
KM12 colon = system: KM12 colon
SW-620 colon = system: SW-620 colon
OVCAR-4 ovarian = system: OVCAR-4 ovarian
SF-268 CNS = system: SF-268 CNS
SK-MEL-28 melanoma = system: SK-MEL-28 melanoma
HOP-92 NSCLC = system: HOP-92 NSCLC
HCC-2998 colon = system: HCC-2998 colon
OVCAR-5 ovarian = system: OVCAR-5 ovarian
MOLT-4 leukemia = system: MOLT-4 leukemia
SNB-19 CNS = system: SNB-19 CNS
MALME-3M melanoma = system: MALME-3M melanoma
PC-3 prostate = system: PC-3 prostate
M14 melanoma = system: M14 melanoma
SK-MEL-5 melanoma = system: SK-MEL-5 melanoma
OVCAR-3 ovarian = system: OVCAR-3 ovarian
TK-10 renal = system: TK-10 renal
HL-60(TB) leukemia = system: HL-60(TB) leukemia
SK-MEL-2 melanoma = system: SK-MEL-2 melanoma
ACHN renal = system: ACHN renal
786-0 renal = system: 786-0 renal
MDA-N = system: MDA-N
RXF 393 renal = system: RXF 393 renal
NCI-H23 lung = system: NCI-H23 lung
NCI-H522 lung = system: NCI-H522 lung

COc1cccc(C2c3cc4c(cc3OC3COC(=O)C32)OCO4)c1OC (stereo unspecified)
TGI (SF-539 CNS): > 100 µM
TGI (LOX IMVI melanoma): > 100 µM
TGI (NCI/ADR-RES ovarian): > 100 µM
TGI (BT-549 breast): > 100 µM
TGI (MDA-MB-231 breast): > 100 µM
TGI (COLO 205 colon): > 100 µM
TGI (HT29 colon): > 100 µM
TGI (SK-OV-3 ovarian): > 100 µM
TGI (HOP-62 NSCLC): > 100 µM
TGI (SNB-75 CNS): > 100 µM
TGI (SF-295 CNS): > 100 µM
TGI (CAKI-1 renal): > 100 µM
TGI (MCF7 breast): > 100 µM
TGI (CCRF-CEM leukemia): > 100 µM
TGI (OVCAR-8 ovarian): > 100 µM
TGI (UACC-62 melanoma): > 100 µM
TGI (HS 578T breast): > 100 µM
TGI (EKVX NSCLC): > 100 µM
TGI (DU-145 prostate): > 100 µM
TGI (A498 renal): > 100 µM
TGI (UACC-257 melanoma): > 100 µM
TGI (NCI-H460 lung): > 100 µM
TGI (IGROV1 ovarian): > 100 µM
TGI (HCT-15 colon): > 100 µM
TGI (A549 NSCLC): > 100 µM
TGI (UO-31 renal): > 100 µM
TGI (HCT-116 colon): > 100 µM
TGI (NCI-H226 lung): > 100 µM
TGI (SN12C renal): > 100 µM
TGI (KM12 colon): > 100 µM
TGI (SW-620 colon): > 100 µM
TGI (OVCAR-4 ovarian): > 100 µM
TGI (SF-268 CNS): > 100 µM
TGI (SK-MEL-28 melanoma): > 100 µM
TGI (HOP-92 NSCLC): > 100 µM
TGI (HCC-2998 colon): > 100 µM
TGI (OVCAR-5 ovarian): > 100 µM
TGI (MOLT-4 leukemia): > 100 µM
TGI (SNB-19 CNS): > 100 µM
TGI (MALME-3M melanoma): > 100 µM
TGI (PC-3 prostate): > 100 µM
TGI (M14 melanoma): > 100 µM
TGI (SK-MEL-5 melanoma): > 100 µM
TGI (OVCAR-3 ovarian): > 100 µM
TGI (TK-10 renal): > 100 µM
TGI (HL-60(TB) leukemia): > 100 µM
TGI (SK-MEL-2 melanoma): > 100 µM
TGI (ACHN renal): > 100 µM
TGI (786-0 renal): > 100 µM
TGI (MDA-N): > 100 µM
TGI (RXF 393 renal): > 100 µM

NC(N)=NCCC(O)(P(=O)(O)O)P(=O)(O)O
TGI (SF-539 CNS): > 100 µM
TGI (LOX IMVI melanoma): > 100 µM
TGI (NCI/ADR-RES ovarian): > 100 µM
TGI (BT-549 breast): > 100 µM
TGI (MDA-MB-231 breast): > 100 µM
TGI (NCI-H23 lung): > 100 µM
TGI (COLO 205 colon): > 100 µM
TGI (SK-OV-3 ovarian): > 100 µM
TGI (HOP-62 NSCLC): > 100 µM
TGI (SF-295 CNS): > 100 µM
TGI (CAKI-1 renal): > 100 µM
TGI (MCF7 breast): > 100 µM
TGI (UACC-62 melanoma): > 100 µM
TGI (HS 578T breast): 57.4 µM
TGI (EKVX NSCLC): > 100 µM
TGI (DU-145 prostate): > 100 µM
TGI (UACC-257 melanoma): > 100 µM
TGI (NCI-H460 lung): > 100 µM
TGI (IGROV1 ovarian): > 100 µM
TGI (HCT-15 colon): > 100 µM
TGI (A549 NSCLC): > 100 µM
TGI (NCI-H522 lung): > 100 µM
TGI (UO-31 renal): > 100 µM
TGI (HCT-116 colon): > 100 µM
TGI (NCI-H226 lung): > 100 µM
TGI (KM12 colon): > 100 µM
TGI (SF-268 CNS): > 100 µM
TGI (HCC-2998 colon): > 100 µM
TGI (OVCAR-5 ovarian): > 100 µM
TGI (SNB-19 CNS): > 100 µM
TGI (MALME-3M melanoma): > 100 µM
TGI (PC-3 prostate): > 100 µM
TGI (M14 melanoma): > 100 µM
TGI (SK-MEL-5 melanoma): > 100 µM
TGI (OVCAR-3 ovarian): > 100 µM
TGI (TK-10 renal): > 100 µM
TGI (ACHN renal): > 100 µM
TGI (786-0 renal): > 100 µM
TGI (MDA-N): > 100 µM
TGI (RXF 393 renal): > 100 µM
